Laboratory results reported in patent US4965280A, “Antifungal carbinols” (E. I. Du Pont de Nemours and Company, priority 1989, dated 1990).

Legend:
Test in all cases: Test E
[1] = system: PARK WHEAT; format: in vivo, Triticum aestivum cv. Park
[2] = system: BONANZA BARLEY; format: in vivo, Hordeum vulgare cv. Bonanza
[3] = system: CMN CHICKWEED; format: in vivo, Stellaria media
[4] = system: CTCHWD BEDSTRAW; format: in vivo, Galium aparine
[5] = system: SNTLS CHAMOMILE; format: in vivo, Matricaria indora
[6] = system: MUSTARD SPP.; format: in vivo, Brassica spp.
[7] = system: ANN. BLUEGRASS; format: in vivo, PO annua
[8] = system: ITALN. RYEGRASS; format: in vivo, Lolium multiflorum
[9] = system: BLACKGRASS; format: in vivo, Alopercurus mysuroides
Description: Seeds of the following crops and weeds are sown into 15 cm pots containing Sassafras sandy loam soil: wheat (Triticum aestivum cv. Park), barley (Hordeum vulgare cv. Bonanza), sugarbeet (Beta vulgaris cv. USH-11), rapeseed (Brassica napus cv. Jet Neuf), black nightshade (Solanum nigrum), chickweed (Stellaria media), lambsquarter (Chenopodium album), Galium aparine, knotweed (Polygonum aviculare), Kochia scoparia, Matricaria indora, redroot pigweed (Amaranthus retroflexus), smartweed (Polygonum persicaria), speedwell (Veronica persica), wild buckwheat (Polygonum convolvulus), wild mustard (Brassica spp.), wild radish (Raphanus raphanistrum), annual bluegrass (PO annua), annual ryegrass (Lolium multiflorum), blackgrass (Alopercurus mysuroides), green foxtail (Setaria viridis), and wild oats (Avena fatua). Compounds are formulated in a nonphytotoxic solvent and applied to the plants as a foliar spray or applied to the soil surface. Plants are treated at two stages: preemergence, or postemergence when the sugarbeets are at the 2-3 true leaf stage. Plants are grown in a temperature-controlled greenhouse for the duration of the test.
Weed control and crop injury are evaluated visually at 3-4 weeks after compound application, using a scale of 0 to 100%, where 0=no injury and 100=complete death of the plant. All plants are rated with respect to untreated plants (checks) grown in the greenhouse under identical conditions to the treated plants.

[10] = system: GREEN FOXTAIL; format: in vivo, Setaria viridis
[11] = system: WILD OATS; format: in vivo, Avena fatua
[12] = system: JET RAPE; format: in vivo, Brassica napus cv. Jet Neuf

Measured: plant response

C=C(c1ccccc1)C(O)(Cn1cncn1)c1ccc(Cl)cc1 (stereo not drawn) [Example 51, 2-(4-Chlorophenyl)-3-phenyl-1-(1H-1,2,4-triazol-1-yl)-3-buten-2-ol]
20%: [5]; POSTEMERGENCE 0125 GM/HA | [7]; POSTEMERGENCE 0250 GM/HA | [7]; PREEMERGENCE 0500 GM/HA | [8]; POSTEMERGENCE 0125 GM/HA | [8]; POSTEMERGENCE 0250 GM/HA | [11]; PREEMERGENCE 0500 GM/HA | [12]; POSTEMERGENCE 0500 GM/HA
0%: [1]; POSTEMERGENCE 0064 GM/HA | [1]; POSTEMERGENCE 0125 GM/HA | [1]; POSTEMERGENCE 0250 GM/HA | [1]; POSTEMERGENCE 0500 GM/HA | [1]; PREEMERGENCE 0500 GM/HA | [2]; POSTEMERGENCE 0064 GM/HA | [2]; POSTEMERGENCE 0125 GM/HA | [2]; POSTEMERGENCE 0250 GM/HA | [2]; POSTEMERGENCE 0500 GM/HA | [3]; POSTEMERGENCE 0064 GM/HA | [3]; POSTEMERGENCE 0125 GM/HA | [3]; POSTEMERGENCE 0250 GM/HA | [3]; POSTEMERGENCE 0500 GM/HA | [3]; PREEMERGENCE 0500 GM/HA | [4]; POSTEMERGENCE 0064 GM/HA | [4]; POSTEMERGENCE 0125 GM/HA | [4]; POSTEMERGENCE 0250 GM/HA | [4]; PREEMERGENCE 0500 GM/HA | [5]; POSTEMERGENCE 0064 GM/HA | [6]; POSTEMERGENCE 0064 GM/HA | [6]; PREEMERGENCE 0500 GM/HA | [7]; POSTEMERGENCE 0064 GM/HA | [7]; POSTEMERGENCE 0125 GM/HA | [8]; POSTEMERGENCE 0064 GM/HA | [8]; POSTEMERGENCE 0500 GM/HA | [8]; PREEMERGENCE 0500 GM/HA | [9]; POSTEMERGENCE 0064 GM/HA | [9]; POSTEMERGENCE 0125 GM/HA | [9]; POSTEMERGENCE 0250 GM/HA | [9]; POSTEMERGENCE 0500 GM/HA | [9]; PREEMERGENCE 0500 GM/HA | [10]; POSTEMERGENCE 0064 GM/HA | [10]; POSTEMERGENCE 0125 GM/HA | [10]; POSTEMERGENCE 0250 GM/HA | [10]; POSTEMERGENCE 0500 GM/HA | [11]; POSTEMERGENCE 0064 GM/HA | [11]; POSTEMERGENCE 0125 GM/HA | [11]; POSTEMERGENCE 0250 GM/HA | [11]; POSTEMERGENCE 0500 GM/HA | [12]; POSTEMERGENCE 0064 GM/HA | [12]; POSTEMERGENCE 0125 GM/HA | [12]; POSTEMERGENCE 0250 GM/HA | [12]; PREEMERGENCE 0500 GM/HA
60%: [5]; POSTEMERGENCE 0500 GM/HA
50%: [4]; POSTEMERGENCE 0500 GM/HA | [7]; POSTEMERGENCE 0500 GM/HA
100%: [5]; PREEMERGENCE 0500 GM/HA | [10]; PREEMERGENCE 0500 GM/HA
40%: [5]; POSTEMERGENCE 0250 GM/HA
30%: [2]; PREEMERGENCE 0500 GM/HA | [6]; POSTEMERGENCE 0125 GM/HA | [6]; POSTEMERGENCE 0250 GM/HA | [6]; POSTEMERGENCE 0500 GM/HA

C=C(c1ccc(F)cc1)C(O)(Cn1cncn1)c1ccccc1F (stereo not drawn) [Example 644]
80%: [7]; POSTEMERGENCE 0500 GM/HA | [7]; PREEMERGENCE 0500 GM/HA
40%: [1]; POSTEMERGENCE 0500 GM/HA | [2]; POSTEMERGENCE 0500 GM/HA | [8]; POSTEMERGENCE 0500 GM/HA
0%: [1]; POSTEMERGENCE 0064 GM/HA | [2]; POSTEMERGENCE 0064 GM/HA | [3]; POSTEMERGENCE 0064 GM/HA | [3]; POSTEMERGENCE 0125 GM/HA | [3]; POSTEMERGENCE 0250 GM/HA | [3]; POSTEMERGENCE 0500 GM/HA | [4]; POSTEMERGENCE 0064 GM/HA | [4]; PREEMERGENCE 0500 GM/HA | [6]; PREEMERGENCE 0500 GM/HA | [8]; POSTEMERGENCE 0064 GM/HA | [8]; PREEMERGENCE 0500 GM/HA | [9]; POSTEMERGENCE 0064 GM/HA | [9]; POSTEMERGENCE 0125 GM/HA | [11]; POSTEMERGENCE 0064 GM/HA | [11]; POSTEMERGENCE 0125 GM/HA | [12]; POSTEMERGENCE 0064 GM/HA | [12]; POSTEMERGENCE 0125 GM/HA | [12]; POSTEMERGENCE 0250 GM/HA
100%: [5]; PREEMERGENCE 0500 GM/HA | [10]; PREEMERGENCE 0500 GM/HA
20%: [1]; POSTEMERGENCE 0125 GM/HA | [2]; POSTEMERGENCE 0125 GM/HA | [2]; POSTEMERGENCE 0250 GM/HA | [3]; PREEMERGENCE 0500 GM/HA | [5]; POSTEMERGENCE 0064 GM/HA | [6]; POSTEMERGENCE 0064 GM/HA | [6]; POSTEMERGENCE 0125 GM/HA | [7]; POSTEMERGENCE 0064 GM/HA | [8]; POSTEMERGENCE 0125 GM/HA | [9]; PREEMERGENCE 0500 GM/HA | [11]; POSTEMERGENCE 0250 GM/HA | [11]; POSTEMERGENCE 0500 GM/HA | [11]; PREEMERGENCE 0500 GM/HA | [12]; PREEMERGENCE 0500 GM/HA
50%: [2]; PREEMERGENCE 0500 GM/HA | [5]; POSTEMERGENCE 0125 GM/HA | [5]; POSTEMERGENCE 0250 GM/HA | [6]; POSTEMERGENCE 0250 GM/HA | [6]; POSTEMERGENCE 0500 GM/HA | [7]; POSTEMERGENCE 0125 GM/HA | [7]; POSTEMERGENCE 0250 GM/HA | [8]; POSTEMERGENCE 0250 GM/HA | [9]; POSTEMERGENCE 0500 GM/HA | [10]; POSTEMERGENCE 0250 GM/HA | [10]; POSTEMERGENCE 0500 GM/HA
30%: [1]; POSTEMERGENCE 0250 GM/HA | [1]; PREEMERGENCE 0500 GM/HA | [4]; POSTEMERGENCE 0125 GM/HA | [4]; POSTEMERGENCE 0250 GM/HA | [4]; POSTEMERGENCE 0500 GM/HA | [9]; POSTEMERGENCE 0250 GM/HA | [10]; POSTEMERGENCE 0064 GM/HA | [10]; POSTEMERGENCE 0125 GM/HA | [12]; POSTEMERGENCE 0500 GM/HA
90%: [5]; POSTEMERGENCE 0500 GM/HA
